# Entries after “also recorded” stand apart in the source; their conditions may differ.
# Experiments:
# [1] = target: T1, TLR-4/CD14 (Homo sapiens, UniProt O00206+Q9Y6Y9); assay: NIH-3T3 TLR-4/CD14 SEAP reporter gene pyrogen test; format: cell-based
# T1 construct: expressed in transfected cells; host or cells: NIH-3T3 (murine fibroblasts), clone 4/5
# Excerpt: The cell line NIH-3T3 was transfected with a TLR-4/CD14 complex as well as the reporter gene plasmid SEAP/ELAM-1.
# The endotoxin (LPS)-mediated induction of TLR-4 leads according to a signal cascade to activation of the transcription factor NF-κB. Expression of the reporter gene SEAP is controlled by an ELAM-1 promoter inducible by NF-κB. NF-κB activation and therefore specifically secretion of SEAP then occurs on induction of TLR-4 by the endotoxin lipopolysaccharide LPS.
# NIH-3T3 TLR-4/CD14 clone 4/5 P35 in a density of 30,000 to 200,000 cells/well (24-well) (corresponding cell count for other well volume) are inoculated in 500 μL/well in 0.5% FCS medium o/n for adhesion.
# On the next day detection occurs by incubation with 300 μL/well detection medium, which is added directly to the induced cells: in the induced cells SEAP activity converts the substrate BCIP in the detection medium to a dark blue insoluble end product (indigo). As an alternative SEAP activity in the induced cells converts the substrate pNPP in the detection medium to a light yellow soluble color complex, which is determined photometrically at about 405 nm. The photometric analysis occurs about 2 hours after addition of the detection medium.
# In one variant transfected cell lines are frozen in the corresponding assay format, here: a cell culture-well-plate (multiwell plate) in corresponding density (200,000 cells/well in 500 μL each (in 24-well)).
# After thawing of the kit, addition of DMEM culture medium occurs for adhesive of the cells overnight. A medium with HEPES buffer permits incubation of the cell test in a heating cabinet, i.e., without CO2 gassing. Induction is carried out per test by addition of 100 ng/mL LPS. The detection is conducted after 24 hours by addition of 300 μL/well BCIP detection medium.
# On a multiwell plate (96-well) NIH-3T3 TLR-4/CD14 SEAP P40 cells were frozen in a density of 30,000 cells/well in 100 μL medium (DMEM 80 mmol/L HEPES, 30% FCS and 5% DMSO) in suspension at −80° C.
# After 72 hours to 4 weeks at −80° C. the cells were thawed by addition of 100 μL medium (10% FCS) at 37° C. […]
# [2] = target: T2, TLR-5 (Homo sapiens, UniProt O60602); assay: NIH-3T3 TLR-5 SEAP reporter gene test; format: cell-based; design: expressed in transfected cells; host or cells: NIH-3T3 (murine fibroblasts); conditions: 2 μg/mL flagellin; BCIP
# T2 sequence (O60602 21-858): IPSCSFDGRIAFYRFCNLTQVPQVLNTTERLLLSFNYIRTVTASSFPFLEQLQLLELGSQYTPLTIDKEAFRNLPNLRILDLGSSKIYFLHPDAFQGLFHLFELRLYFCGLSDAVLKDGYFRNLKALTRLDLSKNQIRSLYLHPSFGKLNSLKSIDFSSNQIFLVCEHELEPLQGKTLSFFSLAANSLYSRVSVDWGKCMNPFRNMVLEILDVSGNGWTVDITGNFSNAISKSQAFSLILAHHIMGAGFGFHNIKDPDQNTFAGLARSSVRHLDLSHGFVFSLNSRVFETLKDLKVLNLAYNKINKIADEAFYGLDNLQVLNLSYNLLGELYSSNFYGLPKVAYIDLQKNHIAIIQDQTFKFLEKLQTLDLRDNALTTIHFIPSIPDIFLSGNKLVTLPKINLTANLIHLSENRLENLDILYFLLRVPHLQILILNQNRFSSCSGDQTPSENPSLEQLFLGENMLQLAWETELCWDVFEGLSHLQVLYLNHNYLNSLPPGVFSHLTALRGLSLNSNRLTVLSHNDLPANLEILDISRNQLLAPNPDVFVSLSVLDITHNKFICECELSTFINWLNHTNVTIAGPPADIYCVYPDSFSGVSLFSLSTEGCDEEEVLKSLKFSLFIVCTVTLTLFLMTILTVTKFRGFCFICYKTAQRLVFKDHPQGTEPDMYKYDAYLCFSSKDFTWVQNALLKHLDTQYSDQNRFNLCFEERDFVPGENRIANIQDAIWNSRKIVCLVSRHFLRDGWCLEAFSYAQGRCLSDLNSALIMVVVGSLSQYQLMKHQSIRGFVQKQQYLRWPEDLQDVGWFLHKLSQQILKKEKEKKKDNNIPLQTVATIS
# Method: The cell line NIH-3T3 was transfected with TLR-5 and the reporter gene plasmid SEAP. The measures correspond to example 1.
# NIH-3T3 clone TLR-5 was inoculated in a density of 30,000 to 200,000 cells/well (24-well) in 500 μL/well in 0.5% FCS medium; induction occurs with 2 μg/mL flagellin; detection by incubation with 300 μL/well detection medium with BCIP.
# [3] = target: T2, TLR-5; assay: Comparative TLR-5 test with HELA cells transfected with TLR-5 SEAP; format: cell-based; design: expressed in transfected cells; conditions: 2 μg/mL flagellin; induced and noninduced controls both intensely blue
# Method: FIG. 13 comparative experiment: TLR-5 test with HELA cells transfected with TLR-5 SEAP induced with 2 μg/mL flagellin; both the induced cells and the noninduced controls show intense blue coloration.
# [4] = tested on: Limulus amebocyte lysate proenzyme; conditions: cited from earlier work
# [5] = tested on: human whole blood cells; conditions: cited from earlier work
# [6] = target: T3, TLR-4/CD14 (Homo sapiens, UniProt O00206); assay: Comparative TLR-4 colour test with HEK blue 293 and other 293 fibroblasts transfected with TLR-4/CD14 SEAP; format: cell-based; conditions: 100 ng/mL LPS; induced and noninduced controls both turn blue
# T3 construct: expressed in transfected cells; host or cells: HEK blue 293 and other 293 cells (clones K2, K4)
# T3 sequence (O00206 24-839): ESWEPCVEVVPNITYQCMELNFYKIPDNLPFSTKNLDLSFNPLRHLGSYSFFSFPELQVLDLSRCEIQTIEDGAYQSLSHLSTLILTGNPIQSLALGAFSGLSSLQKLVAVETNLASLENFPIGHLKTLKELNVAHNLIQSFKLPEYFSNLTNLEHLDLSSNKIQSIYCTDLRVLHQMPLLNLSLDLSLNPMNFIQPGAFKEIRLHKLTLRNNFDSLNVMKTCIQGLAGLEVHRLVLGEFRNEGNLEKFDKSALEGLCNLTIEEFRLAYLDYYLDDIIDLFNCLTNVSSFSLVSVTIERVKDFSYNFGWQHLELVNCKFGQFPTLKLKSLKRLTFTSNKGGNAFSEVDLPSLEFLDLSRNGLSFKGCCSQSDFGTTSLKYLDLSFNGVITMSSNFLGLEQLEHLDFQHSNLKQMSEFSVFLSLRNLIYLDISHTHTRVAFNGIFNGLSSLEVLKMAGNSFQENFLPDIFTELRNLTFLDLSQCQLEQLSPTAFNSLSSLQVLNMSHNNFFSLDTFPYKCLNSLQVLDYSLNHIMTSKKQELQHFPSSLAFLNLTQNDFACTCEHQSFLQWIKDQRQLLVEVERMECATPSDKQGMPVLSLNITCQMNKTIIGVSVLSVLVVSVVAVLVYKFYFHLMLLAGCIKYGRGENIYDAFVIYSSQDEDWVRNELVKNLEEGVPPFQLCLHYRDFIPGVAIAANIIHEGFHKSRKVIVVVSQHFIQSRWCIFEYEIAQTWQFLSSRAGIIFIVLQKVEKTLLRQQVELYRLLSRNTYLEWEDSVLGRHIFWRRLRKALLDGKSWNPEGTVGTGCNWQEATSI
# Method: (§1) HEK blue 293 fibroblasts and other 293 fibroblasts were transfected with TLR-4/CD14 SEAP and induced with 100 ng/mL LPS. All other process parameters were chosen as in example 1 according to the invention.
# [7] = target: T3, TLR-4/CD14; assay: SDS-PAGE/Western Blot analysis of SEAP expression in HEK293 and other 293 cells transfected with TLR-4/CD14 SEAP; format: cell-based; conditions: 100 ng/mL LPS; cell pellets
# Method: as §1
# In addition, a Western Blot analysis of gene expression was conducted in known fashion: first antibody: anti-SEAP; conjugated second antibody: anti-mouse POD; marker: SeeBlue® Plus2; prestained standard.
# T1 sequence (O00206 24-839): as above
# T1 sequence (Q9Y6Y9 17-160 limits assumed): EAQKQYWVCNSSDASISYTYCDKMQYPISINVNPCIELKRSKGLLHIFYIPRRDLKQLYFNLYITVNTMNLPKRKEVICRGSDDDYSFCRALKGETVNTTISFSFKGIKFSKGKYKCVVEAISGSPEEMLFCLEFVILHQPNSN
substance,measurement,setting,value
Poly IC,color change of detection medium (specificity),[1]; induced with 25 μg/mL nonspecific pyrogen each,no color change
flagellin,blue coloration of induced cells,[2],specific blue coloration
same,specific induction / color test,[3],No specific induction is possible
lipopolysaccharide [LPS],detection limit / sensitivity of LAL,[4],3 pg/mL
same,sensitivity of IPT,[5],20 to 50 pg/mL
same,specific induction / color test,[6],no specific induction; also recorded: a specific detection is not possible
same,"alkaline phosphatase (SEAP) expression, induced vs noninduced cells",[7],in the same amount
same,"blue coloration of induced cells, frozen and rethawed cells","[1]; 100 pg/mL, NIH-3T3 TLR-4/CD14 SEAP P40, induction after 24 hours, detection after 3 hours",specific blue coloration
same,"SEAP activity, BCIP color reaction after thawing","[1]; 100 ng/mL LPS, thawed NIH-3T3 clone 4/5 TLR-4/CD14, BCIP",deep dark blue

# From patent US20090253134A1, “Cellular Pyrogen Test” (Fraunhofer-Gesellschaft zur Forderung der angewandten …, priority 2006, published 2009)
